Values of other authors, collected in patent US6415234B1, “Designing inhibitors for glycosyltransferases” (Glyco Design Inc., priority 1998, dated 2002).

Settings: polarised continuum model

Question: With O=P(O)(O)OP(=O)(O)O [pyrophosphate dianion] as the molecule, how does the “solvation free energy in water” value read?
Answer: Its value is -195.8 kcal/mol.
